Test results from PubChem BioAssay AID1324 (NMMLSC, 2008).
The source made the active and inactive calls. How the calls were made is not given here.

target: glutathione S-transferase (GST-GSH binding); experiment: GST–glutathione interaction disruption – biochemical, multiplex beads, flow cytometry, HPSMTB buffer, profiling panel (AID 1324); settings: multiplex bead flow cytometry, MCF, concentration not given here;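 further: glutathione beads loaded with GST-green fluorescent protein and no fluorescent Bim peptide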

Percent span inhibition, inactive:
CCN1/C(=C\c2ccc3cc(C)ccc3[n+]2CC)Sc2cc(C)c(C)cc21
CCN(CC)c1nc(N)nc(N(c2ccccc2)c2ccccc2)n1
Cc1ccnc(NS(=O)(=O)c2ccc(NC(=O)c3c(-c4ccccc4Cl)noc3C)cc2)n1
COc1cc(/C=C2\S/C(=N/S(=O)(=O)c3ccccc3)NC2=O)c([N+](=O)[O-])cc1OC
CCN(CC)c1ccc(NC(=O)c2cccc(C)c2)cc1S(=O)(=O)Nc1ccccc1OC
CCOc1cc(S(=O)(=O)Nc2ccccn2)ccc1F
Cc1cnnn1-c1ccc(C(=O)CCl)cc1
CCOc1ncccc1C(=O)OC(C)C(=O)Nc1ccc(CC)cc1 (stereo not given)
COc1cccc(N2CC(C(=O)Nc3nnc(SCC(=O)c4ccccc4)s3)CC2=O)c1 (stereo not given)
CCN(CC)c1ccc(-c2nn3c(-c4n[nH]c5c4CCC5)nnc3s2)cc1
COc1cccc(NC(=O)CSc2nncn2N)c1
Cc1ccc(C(NC(=O)C(C)C)c2cc([N+](=O)[O-])c3cccnc3c2O)cc1 (stereo not given)
Cc1cc[n+]2cc(-c3cccc([N+](=O)[O-])c3)c(-c3cccc([N+](=O)[O-])c3)cc2c1
O=C(/C=C/c1ccc(-c2ccccc2[N+](=O)[O-])o1)c1ccc(F)cc1
CCN1/C(=C/c2ccc3cc(C)cc(C)c3[n+]2CC)Sc2cc(C)ccc21
CC(=O)c1ccc(NC(=O)c2ccc3nc(-c4ccco4)c(-c4ccco4)nc3c2)cc1
CCOc1ccccc1CNc1ccc(O)cc1
COc1ccc(CN(CC(=O)NC2CCCC2)C(=O)CCC(=O)Nc2cc(C)on2)cc1
COc1c(C)cc(Br)cc1C(=O)Nc1ccc(S(N)(=O)=O)cc1
Cc1nc(NC(=O)CC(C)C)sc1-c1csc(Nc2ccc(Cl)cc2)n1
OCCN1CCN(CCCc2c3c(cc4c2CCC4)CCC3)CC1
O=C(CCc1ccccc1)N1CCN(c2ccccn2)CC1
Cc1ccc(SCCC(=O)Nc2ccc(Br)c(C)c2)cc1
Cc1cc(NC(=O)CSc2nnc(-c3cccnc3)n2Cc2ccccc2)no1
Cn1cc(CN2C[C@]3(C)C[C@H]2CC(C)(C)C3)c(-c2ccc3c(c2)OCCO3)n1
O=C(Cn1cncc1-c1ccc([N+](=O)[O-])cc1)Nc1ccccc1F
CN(C)c1ccc(/C=C2/SC(=O)N(CCN=C3NS(=O)(=O)c4ccccc43)C2=O)cc1
CCN(CC)c1ccc(-c2nn3c(-c4ccccc4OC)nnc3s2)cc1
Cn1c(=O)[nH]c(=O)c2c1nc(N1CCOCC1)n2CCSc1nc2ccccc2[nH]1
COc1cc(C2Nc3cccc4cccc(c34)N2)cc(OC)c1O
C=CCn1c(C)cc(-c2csc(NC)n2)c1C
COc1ccc(C2(NC(C)=O)CCN(C(=O)c3ccco3)CC2)cc1
Cc1ccc(/C=N/NC(=O)CSc2nnc(-c3ccc(Cl)cc3)n2-c2ccccc2)o1
O=C(Nc1ccc(N2CCOCC2)cc1)Nc1ccc2nc(-c3ccco3)c(-c3ccco3)nc2c1
CCOC(=O)c1cccc(Nc2ncnc3ccccc23)c1
O=[N+]([O-])c1c(NCCCO)cc(Sc2nc3ccccc3s2)c2nonc12
COc1cc2c(cc1OC)C(c1ccccc1F)OC(=O)C2 (stereo not given)
N/C(=N\OC(=O)CCC1CCCC1)c1ccncc1
CCOC(=O)C1=C(Cc2ccc(C)cc2)C(=O)c2ccccc2C1=O
c1cncc(-c2nnc3n2N=C(c2cccs2)CS3)c1
Cc1ccc(-c2cc(-c3ccc(F)cc3)c(C#N)c(N)n2)o1
Cc1nc2ncccn2c1-c1csc(Nc2ccccc2)n1
COc1ccc(NC(=O)/C(Cl)=C(/Cl)S(=O)Cc2ccccc2)cn1 (stereo not given)
CCc1cccc(NC(=O)COc2ccccc2)c1
CC(NC(=O)Nc1ccccn1)N1C(=O)C2C3C=CC(C3)C2C1=O (stereo not given)
O=C(Nc1ccccc1)c1ccc2nc(-c3ccco3)c(-c3ccco3)nc2c1
CCOC(=O)CSC1=NC(=O)/C(=C\c2ccc(OC(C)=O)cc2)S1
Cc1ccc(NC2=C(NC(=O)c3ccccc3)C(=O)c3ccccc3C2=O)cc1Cl
C1=CC2c3ccccc3NC(c3ccncc3)C2C1 (stereo not given)
Cn1c(N)c(C(=O)COC(=O)c2cncc(Br)c2)c(=O)n(C)c1=O
